Test results reported in ChEMBL document CHEMBL1201862, “PubChem BioAssay data set” (2004).
Counter-ions that a name gives are not always drawn. Active and inactive are the calls of the source.

How the values were obtained:
Protein RecA = target: T1, Protein RecA (Mycobacterium tuberculosis, UniProt P9WHJ3); assay: Fluorescence Cell-Free Homogeneous Dose Retest to Identify Inhibitors of RecA-Intein Splicing Activity. [Related pubchem assays (depositor defined):AID2097, AID2223, AID489010, AID492950]; type: functional
T1 sequence (P9WHJ3 whole entry): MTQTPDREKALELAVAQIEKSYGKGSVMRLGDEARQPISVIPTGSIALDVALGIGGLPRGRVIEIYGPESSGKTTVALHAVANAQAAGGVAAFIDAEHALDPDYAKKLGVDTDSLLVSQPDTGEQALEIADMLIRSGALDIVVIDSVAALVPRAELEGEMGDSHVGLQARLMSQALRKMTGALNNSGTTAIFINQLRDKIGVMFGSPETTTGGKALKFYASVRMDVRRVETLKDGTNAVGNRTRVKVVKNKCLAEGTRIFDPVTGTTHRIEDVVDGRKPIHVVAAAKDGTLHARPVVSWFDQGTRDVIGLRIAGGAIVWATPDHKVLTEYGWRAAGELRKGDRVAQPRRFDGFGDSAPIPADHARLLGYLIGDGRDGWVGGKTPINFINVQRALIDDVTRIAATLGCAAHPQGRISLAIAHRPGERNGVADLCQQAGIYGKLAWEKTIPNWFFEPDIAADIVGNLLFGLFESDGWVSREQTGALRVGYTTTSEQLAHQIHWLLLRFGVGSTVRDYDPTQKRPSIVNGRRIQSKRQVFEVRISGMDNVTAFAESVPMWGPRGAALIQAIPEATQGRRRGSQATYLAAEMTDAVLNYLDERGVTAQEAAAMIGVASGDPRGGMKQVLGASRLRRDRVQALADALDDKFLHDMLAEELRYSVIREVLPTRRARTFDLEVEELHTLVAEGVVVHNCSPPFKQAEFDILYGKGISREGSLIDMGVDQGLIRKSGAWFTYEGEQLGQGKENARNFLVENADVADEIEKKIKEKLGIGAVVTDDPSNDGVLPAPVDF

[1] = target: T2, Replicative DNA helicase DnaB (Mycobacterium tuberculosis, UniProt P9WMR3); assay: DnaB intein splicing inhibitors, dose response, biochemical, cell-free fluorescence (AID 449749); type: functional
T2 sequence (P9WMR3 whole entry): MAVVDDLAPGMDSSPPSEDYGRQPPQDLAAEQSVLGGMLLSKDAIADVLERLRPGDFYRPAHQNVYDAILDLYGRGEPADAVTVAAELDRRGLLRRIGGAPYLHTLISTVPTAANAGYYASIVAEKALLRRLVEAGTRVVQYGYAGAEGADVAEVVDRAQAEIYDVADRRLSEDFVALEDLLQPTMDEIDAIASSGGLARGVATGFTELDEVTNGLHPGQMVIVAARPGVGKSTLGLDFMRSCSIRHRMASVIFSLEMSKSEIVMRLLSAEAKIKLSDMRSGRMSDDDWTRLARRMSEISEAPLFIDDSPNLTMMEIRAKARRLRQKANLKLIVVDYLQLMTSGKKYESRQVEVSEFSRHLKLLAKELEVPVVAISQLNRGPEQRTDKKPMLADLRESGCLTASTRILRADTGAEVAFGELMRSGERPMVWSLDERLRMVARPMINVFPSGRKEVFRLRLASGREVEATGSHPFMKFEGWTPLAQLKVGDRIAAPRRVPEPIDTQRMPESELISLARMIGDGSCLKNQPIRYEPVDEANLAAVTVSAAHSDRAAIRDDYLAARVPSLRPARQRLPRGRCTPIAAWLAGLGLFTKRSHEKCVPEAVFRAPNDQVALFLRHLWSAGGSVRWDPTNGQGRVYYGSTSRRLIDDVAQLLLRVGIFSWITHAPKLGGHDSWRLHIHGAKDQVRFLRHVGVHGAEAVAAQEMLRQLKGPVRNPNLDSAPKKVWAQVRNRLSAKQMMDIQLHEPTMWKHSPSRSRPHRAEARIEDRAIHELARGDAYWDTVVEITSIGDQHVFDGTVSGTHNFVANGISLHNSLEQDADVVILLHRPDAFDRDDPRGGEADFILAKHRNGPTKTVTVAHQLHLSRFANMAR

cells [2] = type: functional, cell-based
Vero = assay: cells; type: functional; conditions: Chlorocebus sabaeus
[3] = Luminescence Cell-Based Dose Retest to Confirm Inhibitors of Cancer Stem Cells. [Related pubchem assays (depositor defined):AID2717, AID2721]; type: functional; conditions: Homo sapiens
cells [4] = type: functional, cell-based; remark: listed apart in the source
[5] = NIH-3T3 fibroblast cytotoxicity, dose response, cytotoxicity control, cell-based, fluorescence, Alamar Blue, secondary assay (AID 2327); type: functional;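 also: NIH-3T3 mouse fibroblasts cultured with fluconazole at 8 µg/mL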
[6] = target: ATP-dependent molecular chaperone HSP82 (Candida albicans (strain WO-1) (Yeast), UniProt C4YTQ8); assay: steroid-induced GRE reporter decrease in yeast – S. cerevisiae, luminescence, Hsp90 inhibitor project, dose response (AID 2400); type: functional, cell-based;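 also: beta-galactosidase luminescence from glucocorticoid response element reporter as proxy for Hsp90 function; inhibitor potency where signal loss means Hsp90 inhibition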
[7] = fluconazole-exposed Candida albicans growth modulators – fluorescence, retest, confirmation (AID 2467); type: functional, cell-based
[8] = target: T3, Serine/threonine-protein phosphatase (Candida dubliniensis (strain CD36 / CBS 7987 / NCPF 3949 / NRRLY-17841) (Yeast), UniProt B9W6M3); assay: blockers of CaCl2-induced CDRE-lacZ signaling – S. cerevisiae, luminescence, secondary, dose response (AID 2388); type: functional, cell-based;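 also: yeast reporter cells carrying a calcineurin-responsive lacZ construct stimulated with calcium chloride; luminescent beta-galactosidase reporter signal in whole cells rather than isolated phosphatase activity; potency for inhibition where a drop in reporter signal means calcineurin blockade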
T3 sequence (B9W6M3 whole entry): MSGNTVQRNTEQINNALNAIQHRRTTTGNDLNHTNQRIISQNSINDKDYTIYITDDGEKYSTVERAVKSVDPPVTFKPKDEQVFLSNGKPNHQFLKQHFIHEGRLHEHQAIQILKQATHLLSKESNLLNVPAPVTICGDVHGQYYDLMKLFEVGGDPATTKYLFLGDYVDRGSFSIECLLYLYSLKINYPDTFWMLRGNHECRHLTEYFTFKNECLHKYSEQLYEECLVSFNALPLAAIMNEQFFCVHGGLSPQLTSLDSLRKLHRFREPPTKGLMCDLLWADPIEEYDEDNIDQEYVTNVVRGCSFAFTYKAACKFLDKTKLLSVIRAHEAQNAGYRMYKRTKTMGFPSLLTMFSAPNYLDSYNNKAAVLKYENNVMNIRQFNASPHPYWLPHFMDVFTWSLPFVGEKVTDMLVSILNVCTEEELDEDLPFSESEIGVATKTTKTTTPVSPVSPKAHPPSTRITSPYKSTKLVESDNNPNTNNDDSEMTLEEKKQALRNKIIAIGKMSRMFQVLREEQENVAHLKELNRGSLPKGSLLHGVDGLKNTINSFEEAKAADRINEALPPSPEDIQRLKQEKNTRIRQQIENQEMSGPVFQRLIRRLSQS

[9] = target: 5-hydroxytryptamine receptor 5A (Homo sapiens, UniProt P47898); assay: Counterscreen for agonists of OPRM1-OPRD1 heterodimerization: luminescence-based cell-based high throughput dose response assay to identify agonists of 5-hydroxytryptamine (serotonin) 5A receptor (HTR5A). [Related pubchem assays (depositor defined):AID504326, AID504355, AID504692, AID504904, AID504905]; type: functional
[10] = target: Delta-type opioid receptor (Homo sapiens, UniProt P41143); assay: Counterscreen for agonists of heterodimerization of the mu 1 (OPRM1) and delta 1 (OPRD1) opioid receptors: Luminescence-based cell-based high throughput dose response assay to identify agonists of OPRD1 homodimerization. [Related pubchem assays (depositor defined):AID504326, AID504355, AID504692, AID504904, AID504905]; type: functional
[11] = target: T4, Short transient receptor potential channel 4 (Mus musculus, UniProt Q9QUQ5); assay: block of DAMGO-driven TRPC4 calcium entry – cell-based, HEK293 TRPC4/mu-opioid, Fluo-4 calcium, dose response (AID 434942); type: functional;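 also: potency of inhibitors blocking the TRPC4 calcium response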
T4 sequence (Q9QUQ5 whole entry): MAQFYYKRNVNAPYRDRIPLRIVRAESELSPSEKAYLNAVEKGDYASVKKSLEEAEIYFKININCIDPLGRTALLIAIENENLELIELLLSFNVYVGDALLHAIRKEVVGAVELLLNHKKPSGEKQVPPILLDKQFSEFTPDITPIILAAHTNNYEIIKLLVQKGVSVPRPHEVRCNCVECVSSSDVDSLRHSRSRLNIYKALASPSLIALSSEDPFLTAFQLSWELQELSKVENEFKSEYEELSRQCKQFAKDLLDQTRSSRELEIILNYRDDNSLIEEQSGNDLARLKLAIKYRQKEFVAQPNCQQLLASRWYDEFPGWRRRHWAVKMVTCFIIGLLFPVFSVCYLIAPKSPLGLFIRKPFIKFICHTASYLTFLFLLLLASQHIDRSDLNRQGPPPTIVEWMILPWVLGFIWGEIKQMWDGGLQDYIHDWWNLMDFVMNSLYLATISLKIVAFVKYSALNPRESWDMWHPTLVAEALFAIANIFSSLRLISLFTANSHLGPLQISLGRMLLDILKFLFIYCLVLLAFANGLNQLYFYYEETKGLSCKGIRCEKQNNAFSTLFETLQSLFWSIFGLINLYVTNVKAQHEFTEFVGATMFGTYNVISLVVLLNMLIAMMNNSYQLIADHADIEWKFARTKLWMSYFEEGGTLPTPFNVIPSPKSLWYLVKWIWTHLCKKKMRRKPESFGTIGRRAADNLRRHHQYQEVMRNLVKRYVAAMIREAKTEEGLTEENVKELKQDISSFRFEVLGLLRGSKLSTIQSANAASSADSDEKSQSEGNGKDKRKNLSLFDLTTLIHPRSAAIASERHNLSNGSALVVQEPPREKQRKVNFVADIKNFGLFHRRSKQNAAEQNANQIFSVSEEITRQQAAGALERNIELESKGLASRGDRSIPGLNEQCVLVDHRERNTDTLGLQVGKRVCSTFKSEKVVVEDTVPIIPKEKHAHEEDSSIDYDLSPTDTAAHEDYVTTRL

[12] = target: T4, Short transient receptor potential channel 4; assay: calcium entry via TRPC4 opening agents – cell-based, HEK293 TRPC4/mu-opioid, Fluo-4 calcium, dose response (AID 434937); type: functional
Mu-type opioid receptor = Mu-type opioid receptor (Homo sapiens, UniProt P35372); assay: Counterscreen for agonists of heterodimerization of the mu 1 (OPRM1) and delta 1 (OPRD1) opioid receptors: Luminescence-based cell-based high throughput dose response assay to identify agonists of OPRM1 homodimerization.; type: functional;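 also: U2OS cells expressing OPRM1 and beta-arrestin as split beta-galactosidase partners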
[13] = THP-1 cell cytotoxicity, dose response, cytotoxicity control for non-replicating M. tuberculosis project (AID 489025); type: functional
cells [14] = type: functional
[15] = Trypanosoma cruzi growth suppression in host cells – NIH3T3 host cells, beta-gal luminescence, confirmation (AID 2044); type: functional, cell-based;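 also: intracellular parasites grown in NIH/3T3 mouse fibroblasts as host cells; luminescent beta-galactosidase reporter signal from transgenic T. cruzi replicating inside host cells; inhibitors lower the luminescence signal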
[16] = NIH3T3 cell viability loss – ATP luminescence, mouse fibroblasts, counter-screen, dose response (AID 2010); type: functional, cell-based;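 also: cells exposed to compound for about 90 hours before reading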
[17] = target: T5, Carboxy-terminal domain RNA polymerase II polypeptide A small phosphatase 1 (Homo sapiens, UniProt Q9GZU7); assay: CTDSP1 inhibitors, concentration-response, biochemical, absorbance readout, ultra-high-throughput screen actives (AID 540297); type: functional
T5 sequence (Q9GZU7 whole entry): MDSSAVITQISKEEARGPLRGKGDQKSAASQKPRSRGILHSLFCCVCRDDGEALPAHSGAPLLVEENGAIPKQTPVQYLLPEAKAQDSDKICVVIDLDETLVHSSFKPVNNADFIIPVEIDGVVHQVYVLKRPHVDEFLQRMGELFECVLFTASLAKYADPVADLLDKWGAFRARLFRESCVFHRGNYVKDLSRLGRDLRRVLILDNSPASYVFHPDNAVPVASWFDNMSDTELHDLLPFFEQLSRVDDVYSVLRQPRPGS

Chain of Delta-type opioid receptor (P41143 whole entry): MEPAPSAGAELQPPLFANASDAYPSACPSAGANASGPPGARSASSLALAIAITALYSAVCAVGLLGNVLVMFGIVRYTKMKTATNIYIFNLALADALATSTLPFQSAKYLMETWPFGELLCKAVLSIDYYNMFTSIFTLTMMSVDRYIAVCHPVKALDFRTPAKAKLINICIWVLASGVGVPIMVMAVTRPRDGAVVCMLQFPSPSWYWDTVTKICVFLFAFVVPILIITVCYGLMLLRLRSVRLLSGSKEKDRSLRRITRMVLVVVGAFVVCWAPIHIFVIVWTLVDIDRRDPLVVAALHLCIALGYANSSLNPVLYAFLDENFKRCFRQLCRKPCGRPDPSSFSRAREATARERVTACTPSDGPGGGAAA
Chain of Mu-type opioid receptor (P35372 whole entry): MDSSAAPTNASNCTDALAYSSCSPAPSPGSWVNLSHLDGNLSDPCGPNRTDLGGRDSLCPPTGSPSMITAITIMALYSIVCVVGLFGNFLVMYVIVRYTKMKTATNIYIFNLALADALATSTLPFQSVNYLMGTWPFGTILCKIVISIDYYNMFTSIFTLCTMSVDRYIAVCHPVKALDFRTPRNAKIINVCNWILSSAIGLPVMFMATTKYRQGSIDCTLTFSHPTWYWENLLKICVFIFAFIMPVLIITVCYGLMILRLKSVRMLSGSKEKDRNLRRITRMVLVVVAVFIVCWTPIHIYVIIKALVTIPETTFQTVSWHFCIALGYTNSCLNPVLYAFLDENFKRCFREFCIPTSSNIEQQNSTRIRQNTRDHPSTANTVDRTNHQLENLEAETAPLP
Chain of 5-hydroxytryptamine receptor 5A (P47898 whole entry): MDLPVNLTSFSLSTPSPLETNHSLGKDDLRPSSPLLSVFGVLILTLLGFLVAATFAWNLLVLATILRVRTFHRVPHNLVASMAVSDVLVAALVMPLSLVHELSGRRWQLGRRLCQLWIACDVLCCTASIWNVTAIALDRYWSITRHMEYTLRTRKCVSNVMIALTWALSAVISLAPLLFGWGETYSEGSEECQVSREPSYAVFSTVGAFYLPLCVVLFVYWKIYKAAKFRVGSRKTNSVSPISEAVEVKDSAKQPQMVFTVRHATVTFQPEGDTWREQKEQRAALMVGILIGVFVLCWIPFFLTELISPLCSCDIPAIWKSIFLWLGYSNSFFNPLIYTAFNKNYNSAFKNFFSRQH
Chain of ATP-dependent molecular chaperone HSP82 (C4YTQ8 whole entry): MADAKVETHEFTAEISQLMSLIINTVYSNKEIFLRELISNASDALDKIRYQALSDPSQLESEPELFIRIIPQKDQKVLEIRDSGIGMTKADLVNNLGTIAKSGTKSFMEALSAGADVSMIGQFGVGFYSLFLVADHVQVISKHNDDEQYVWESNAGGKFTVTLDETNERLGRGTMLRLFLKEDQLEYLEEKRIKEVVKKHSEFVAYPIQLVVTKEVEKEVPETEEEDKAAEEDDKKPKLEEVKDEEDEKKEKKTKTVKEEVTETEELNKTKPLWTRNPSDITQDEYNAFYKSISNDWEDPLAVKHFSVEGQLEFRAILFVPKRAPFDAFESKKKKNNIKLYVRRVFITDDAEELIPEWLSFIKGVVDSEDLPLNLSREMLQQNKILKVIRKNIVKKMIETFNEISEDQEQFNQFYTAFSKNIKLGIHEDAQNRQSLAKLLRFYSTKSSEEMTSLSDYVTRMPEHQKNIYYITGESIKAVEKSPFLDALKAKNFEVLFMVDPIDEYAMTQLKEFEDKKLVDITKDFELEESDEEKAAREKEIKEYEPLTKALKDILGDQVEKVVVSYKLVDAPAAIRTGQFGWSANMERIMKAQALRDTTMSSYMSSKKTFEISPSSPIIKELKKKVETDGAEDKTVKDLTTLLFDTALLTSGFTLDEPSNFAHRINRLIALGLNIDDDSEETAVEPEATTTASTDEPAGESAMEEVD

Question: Which EC50 (Protein RecA) does the source give for `Cc1ccc(-c2nnc(Sc3nc4ccccc4o3)c3ccccc23)cc1` here?
Answer: 0.396 µM (active)

Question: What about the AC50 [1] of the same molecule?
Answer: 2.39 µM (active)

Question: And the EC50 (cells [2])?
Answer: > 350 µM (not active)

Question: What about the CC50 (Vero) of the same molecule?
Answer: > 25 µM (active)

Question: What about the AC50 [3] of the same molecule?
Answer: 6.09 µM (active)

Question: And the EC50 (cells [4])?
Answer: > 350 µM (not active)

Question: Which results are given for `Cc1ccc(C(=O)Nc2cccc(-c3cn4ccccc4n3)c2)cc1`?
Answer: EC50 [5]: > 150 µM (inactive); EC50 [6]: > 160 µM (inactive); EC50 [7]: 0.628 µM (active); EC50 [8]: > 180 µM (inactive)

Question: For `CN(C)C(CNC(=O)c1ccc(C(F)(F)F)cc1)c1ccco1` (configuration not stated), which EC50 [9] is on record?
Answer: > 92.4 µM (inactive)

Question: What about the EC50 [10] of the same molecule?
Answer: 91 µM (inactive)

Question: And the EC50 [11]?
Answer: 0.0533 µM (active)

Question: What about the EC50 [12] of the same molecule?
Answer: 0.267 µM (active)

Question: What about the EC50 (Mu-type opioid receptor) of the same molecule?
Answer: > 92.4 µM (inactive)

Question: For `C/C(=N/Nc1ccnc2cc(Cl)ccc12)c1ccc(N)cc1`, which EC50 [9] is on record?
Answer: > 92.4 µM (inactive)

Question: What about the CC50 [13] of the same molecule?
Answer: 23.4 µM (active)

Question: And the IC50 (cells [14])?
Answer: 29 µM (active)

Question: What about the EC50 [15] of the same molecule?
Answer: 3.31 µM (active)

Question: And the EC50 [10]?
Answer: 29.5 µM (inactive)

Question: What about the EC50 [16] of the same molecule?
Answer: > 60 µM (not active)

Question: What about the EC50 (Mu-type opioid receptor) of the same molecule?
Answer: 54.7 µM (inactive)

Question: With `COc1ccc(C(=O)N/N=C/c2ccc(OC(=O)c3cccc4ccccc34)c([N+](=O)[O-])c2)cc1` as the molecule, how does the IC50 [17] read?
Answer: 2.4 µM (active)

Question: For `O=C(O)c1cc(-c2ccc(/C=C3\NC(=O)N(c4ccccc4)C3=O)o2)ccc1Cl`, which IC50 [17] is on record?
Answer: 5.09 µM (active)

Question: What does the source list for `c1ccc(C2(N3CCCCC3)CCCCC2)cc1` [PHENCYCLIDINE HYDROCHLORIDE]?
Answer: EC50 [9]: > 92.5 µM (inactive); EC50 [10]: 33.6 µM (inactive); EC50 (Mu-type opioid receptor): 6.29 µM (active)
